Assay results: patent US10501502B2, “Allophycocyanin alpha-subunit evolved labeling proteins (smURFPs)” (The Regents of the University of California, priority 2016, dated 2019)
Entries after “also recorded” stand apart in the source; their conditions may differ.

Assays:
[1] = FP purification and fluorescence characterization in vitro (spectra, extinction coefficient, quantum yield); assay type: physicochemical
Experimental: FP genes were expressed on a pBAD vector (Life Technologies) with a polyhistidine tag on the C terminus, cells were lysed with B-PER (Thermo Scientific), and purified using Ni-NTA (Qiagen) puri-fication. PCB (HO-1+PcyA) and BV (HO-1) incorporation in Escherichia coli was performed simultaneously during constitu-tively active FP expression. Extinction coefficient was determined by PCB or BV absorbance as described35,36 (Table 3, smURFP+BV and TDsmURFP+BV, and Table 2) or calculated for the apoproteins by determining the protein concentration by the BCA protein assay (Pierce), and a specific chromo-phore concentration was added (specified in the Purification of FP lacking chromophore and in vitro chromophore incorporation section) to get 1 and 2 chromophore species (Table 5, not including (Escherichia coli)). When FP chromophore (PCB or BV) was expressed in Escherichia coli, the PCB and BV Q band had absorbance that overlapped with detection of BCA or Bradford assay of 562 nm and 592 nm, respectively. We used the previously published protocols35,36, where there was no change of the BV absorbance at 390 nm when free in solution or attached to the FP. smURFP+BV denaturation with 1 M urea caused no change in the BV absorbance at 390 nm, but the Q band was reduced ˜20-fold. Therefore, the extinction coefficient of BV at 390 nm was used to calculate the concentration of holoprotein (FP+PCB or BV) concentration.
EX and EM spectra were obtained using SPEX Fluorolog fluorometer (Horiba). Absorbance spectra were obtained using UV-VIS Spectrophotometer Cary Eclipse (Varian) or UV-2700 (Shimadzu). Quantum yield was determined relative to Cy5. Incorporation rates of BV on 0.5 μM smURFP was performed by addition of smURFP to PBS alone or with 20% fetal bovine serum (FBS) and mixed by pipetting in a quartz cuvette. Chromophore was added last, mixed by pipetting, and fluorescence was recorded using SPEX Fluorolog fluorometer (Horiba). Photobleaching was characterized on bubbles of purified FP or Cy5 within mineral oil using light from a 150 W xenon arc lamp with 100% light through EX/EM=628(40)/680(30) nm for smURFP, TDsmURFP, and Cy5 or EX/EM=665 (45)/725 (50) nm for IFP 1.4 focused with a 40×, 1.2 numerical aperture C-Apochromat oil-immersion lens on a Zeiss Axiovert 200M inverted microscope. Photobleaching times were normalized to reflect an initial illumination intensity producing 1,000 photons per fluorescent molecule per second as previously described^37.
HO-1 was removed by digesting the pBAD vector (Life Technology) with MscI and PmeI (NEB). smURFP and TDsmURFP were expressed and purified as described above. No chromophore was present on smURFP and TDsmURFP (confirmed by UV, fluorescence imaging, and MS). For predominant fluorescent species+2 chromophores, a ten-fold excess of chromophore was added to smURFP and TDsmURFP. For predominant fluorescent species+1 chromophore, a quarter concentration of chromophore was added to smURFP and TDsmURFP. Chromophore was added in PBS+10% FBS at 37° C. overnight. smURFP+chromophore and TDsmURFP+chromophore were purified using NiNTA (Qiagen) to remove excess or noncovalently attached chromophore.

[2] = BV or BVMe2 concentration in plasma, in vitro; details: 10 μM, 37° C., up to 1,440 min
Experimental: Whole blood was collected via abdominal aorta and placed in tubes with lithium heparin (BD, No. 365971) on ice. Tubes were centrifuged to remove red blood cells, and plasma was stored on ice for 30 min. Clarified plasma was combined and aliquoted into 9×70 μl aliquots and placed on ice. The following nine experiments were performed: starting plasma (1) and plasma+10 μM BV (2-5) or BVMe2(6-9) at time 0 at 4° C. and 15, 60, and 1,440 min at 37° C. Reactions were stopped by freezing at −80° C. Plasma samples were thawed, diluted 4× with cold 50% ACN, 48% water (H2O), and 2% acetic acid, and centrifuged for 14 min at 4° C. Reverse-phase high performance liquid chromatography (HPLC) was performed on an Agilent 1100 Series HPLC on a Phenomenex Luna C18(2) reverse-phase column 100 Å, 250 cm×21.20 mm I.D. 10 μm reverse-phase column (00G-4253-P0 AX), with a 21 min, 10-90% H2O:ACN (0.05% trifluoroacetic acid, TFA) gradient and a flow rate of 1 ml/min into a diode array detector and MSD-Ion Trap (Agilent LC/MSD trap XCT).

HEK293A cells = experiment: Fluorescence imaging of FPs in HEK293A cells with chromophore addition or HO-1 expression; assay type: cell-based
Excerpt: smURFP codons were optimized for human cell expression, and the gene was created by GenScript. smURFP, TDsmURFP (created from mammalian-optimized smURFP), IFP1.4 (mammalian-optimized form^35), IFP2.0 (mammalian-optimized form^46), and iRFP713 (mammalian-optimized form^36) were PCR amplified using Phusion High-Fidelity DNA Polymerase (NEB) with primers containing 5′ HindIII and 3′ XhoI restriction enzyme sites. HindIII-HF and XhoI (NEB)-digested PCR fragments were gel purified (Zymoclean Gel DNA Recovery Kit) and were ligated (T4 DNA Ligase, Life Technologies) into a similarly digested pCDNA3-IRES-eGFP vector (bicistronic to express two FPs in the same cell). For creation of HO-1-expressing mammalian vec-tors, the Synechocystis HO-1 was used, and the codons were not optimized for mammalian expression. Synechocystis HO-1 was directly amplified from the pBAD vector using primers containing 5′ BsiWI and 3′ XbaI restriction enzyme sites. pCDNA3 smURFP, TDsmURFP, IFP1.4, IFP2.0, or iRFP713-IRES-eGFP vectors were digested with BsiWI and XbaI (NEB), dephosphorylated (SAP, Roche), gel purified (Zymoclean Gel DNA Recovery Kit), and ligated (T4 DNA Ligase, Life Technologies) with similarly digested, purified HO-1 PCR fragment. For creation of smURFP fusions, smURFP was PCR amplified using Phusion High-Fidelity DNA Polymerase (NEB) with primers containing 5′ AgeI and 3′ NotI restriction enzyme sites for N-terminal fusions or with primers containing 5′ AgeI and 3′ BspEI restriction enzyme sites for C-terminal fusions. mGeos2-VEL-ManII-N-10 (Addgene 57551) and Dronpa-PDHA1-N-10 (Addgene 57292) vectors were digested with AgeI and NotI (NEB) and mCherry-αTubulin-C-18 (Addgene 55148) and tdTomato-LaminB1-10 (Addgene 58107) were digested with AgeI and BspEI, dephosphorylated (SAP, Roche), gel purified (Zymoclean Gel DNA Recovery Kit), and ligated (T4 DNA Ligase, Life Technologies) with similarly digested, purified smURFP PCR fragment. HEK293A (Invitrogen, Life Technologies), HT1080 (ATCC), and PC3 (ATCC) cells were grown in Dulbecco's Modified Eagle's medium (DMEM, Corning), supplemented with 10% FBS (Atlanta Biologicals)+1×penicillin—streptomycin (Fisher Scientific), which is referred to as growth media, on poly-D-lysine-coated glass-bottom culture dishes (MatTek, No. P35G-0-14-C). The HEK cell line is listed in the ICLAC and NCBI biosample databases and is commonly misidentified as the HeLa cell line. For expression of exogenous fluorescent proteins, there is no problem if there is a contaminating cell line because no endogenous biology or therapeutic results are being determined. HEK293A cells were purchased from Invitrogen (Life Technologies), and all experiments are derived from the same expanded frozen stock without cell line authentication or mycoplasma detection. Cells were transfected using 2 μg of circular DNA+5 μl Lipofectamine 2000 (Life Technologies) in 2 ml Opti-MEM (Life Technologies) for 4-5 h, transfection media was discarded, and prewarmed growth media was added. Chromophores (5 mM in DMSO) were added at indicated concentrations to growth media, warmed for 10-15 min at 37° C., and added to cells. For multiple timepoints, incubations were staggered to maintain equivalent incubation. Prior to imaging, cells were washed 1×2 ml growth media, 2×2 ml imaging solution, and imaged in 2 ml imaging solution. Fluorescence imaging was performed on a Zeiss Axiovert 200M inverted microscope controlled by SlideBook software. FPs were imaged with the following settings: eGFP, EX/EM=495(10)/535(25) nm, tdTomato EX/EM=540(25)/595(50) nm; mCherry and mCardinal, EX/EM=580(20)/653(95) nm; smURFP and TDsmURFP, EX/EX=628(40)/680(30) nm; and IFP1.4, IFP2.0, and iRFP713, EX/EM=665(45)/725(50) nm. […]

## C=CC1=C(C)/C(=C/C2=NC(=C\c3[nH]c(/C=C4\NC(=O)C(C)=C4C=C)c(C)c3CCC(=O)O)/C(CCC(=O)O)=C2C)NC1=O [BV, biliverdin, reference compound]
[1]
  quantum yield (QY): 0.013%
[2]
  stability in plasma in vitro: slower degradation; also recorded: significantly degraded
HEK293A cells; 3.5 h
  fluorescence with 25 μM BV at pH 6.4 relative to BV at pH 7.5: increased fluorescence three-fold
HEK293A cells; pH 6.4
  fluorescence with protonated BV (pH 6.4) relative to BVMe2: five-fold less
